According to publication PMC8533949, “Biocatalytic Production of Aldehydes: Exploring the Potential of Lathyrus cicera Amine Oxidase” (Biomolecules, 2021):

The molecules below were run on T1, Lathyrus cicera amine oxidase (LCAO) (assay: coupled peroxidase assay (AAP/DCHBS, […] nm), initial rates). Settings: pH 7, 20 mM phosphate, 25 °C, air O2.
T1 construct: copper/TPQ enzyme
Format: biochemical

| SMILES | Km [mM] |
| --- | --- |
| COc1cc(CCN)ccc1O [4a] | 1.31 |
| COc1ccc(CCN)cc1 [6a] | 5.37 |
| NCCC1=CCCCC1 [14a] | 1.9 |
| COc1ccc(CCN)cc1OC [5a] | 1 |
| NCCc1ccc2c(c1)OCO2 [8a] | 3.83 |
| NCCc1ccc(Cl)cc1 [10a] | 3.38 |
| COc1cccc(CCN)c1 [7a] | 0.47 |
| NCCCN1CCOCC1 [15a] | 17 |
| NCCN1CCCCC1 [11a] | 0.42 |
| CN(C)CCCN [19a] | 8.8 |
| CN(C)CCN [18a] | 0.23 |
| NCCc1ccc(O)cc1 [1a] | 0.6 |
| NCCCn1ccnc1 [16a] | 0.61 |
| NCCN1CCOCC1 [12a] | 6.46 |
| NCCC1CCCCC1 [13a] | 1.44 |
| COc1ccc(CCN)cc1O [3a] | 1.58 |
| NCCCN1CCCC1 [17a] | 2.3 |
| NCCc1ccccc1 [2a] | 1.2 |
